This note sets out measurements from ChEMBL document CHEMBL1201862, “PubChem BioAssay data set” (2004).

Molecules are shown by their SMILES.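 Values below derive from 48-hour exposures of cells grown in 96-well plates, with endpoints linearly interpolated between the two concentrations bracketing the appropriate inhibition level. GI50: concentration for 50% inhibition of growth.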 Calls of active or inactive are those of the source. Rule as the data show it: active = GI50 up to about 1.1 µM and inactive = higher. Bounds are passed on as bounds.

Experiment in all cases: growth of human tumour cells (NCI), 48 h
The subject of experiment [1] is NCI-H522.
Experiment [2] concerns UO-31.
The test system of experiment [3] is NCI-H460.
Experiment [4] concerns HT-29.
Experiment [5] relates to CAKI-1.
Experiment [6] deals with NCI/ADR-RES.
The test system of experiment [7] is TK-10.
In experiment [8] the test system is MDA-MB-435.
Experiment [9] has as its system RXF 393.
For experiment [10], the system named is BT-549.
Experiment [11] has as its system OVCAR-8.
The test system of experiment [12] is HOP-62.
Experiment [13] relates to MDA-N.
Experiment [14] deals with SF-539.
Experiment [15] relates to MDA-MB-231.
Experiment [16] deals with Malme-3M.
The subject of experiment [17] is HCT-116.
Experiment [18] deals with 786-0.
For experiment [19], the system named is DU-145.
In experiment [20] the test system is UACC-62.

Turning to `Cn1c2c(c3ccccc31)CCN=C2C1CCCOC1=O` (stereo not given), the GI50 is > 100 µM (inactive) in [1]; 43.5 µM (inactive) in experiment [2]; > 100 µM (inactive) in [3]; > 100 µM (inactive) in experiment [4]; > 100 µM (inactive) in experiment [5]; > 100 µM (inactive) in [6]. Further, the GI50 is > 100 µM (inactive) in experiment [7]; > 100 µM (inactive) in experiment [8]; > 100 µM (inactive) in experiment [9]; 47 µM (inactive) in experiment [10]; > 100 µM (inactive) in experiment [11]; > 100 µM (inactive) in [12]. Further, the GI50 in [13], in [14], in experiment [15], in [16], in experiment [17] and in experiment [18] was > 100 µM (inactive) in each case. Besides, the GI50 in experiment [19] and in experiment [20] was > 100 µM (inactive) each time.

As to `CCOP(=O)(O)C(Nc1ccc(/N=N/c2ccccc2)cc1)c1ccc(C(Nc2ccc(/N=N/c3ccccc3)cc2)P(=O)(O)OCC)cc1` (stereo not given), the GI50 was 18.6 µM (inactive) in [1]; 67.1 µM (inactive) in [2]; 22 µM (inactive) in experiment [3]; 18.3 µM (inactive) in experiment [4]; 44.6 µM (inactive) in [5]; 27.4 µM (inactive) in experiment [6]. For the same compound, the GI50 in experiment [7] was 36.2 µM (inactive); in experiment [8] it was 17.4 µM (inactive); in [9] it was 25.2 µM (inactive); in experiment [10] it was 18.1 µM (inactive); in [11] it was 16.3 µM (inactive); in experiment [12] it was 18.5 µM (inactive). The GI50 was 19.4 µM (inactive) in [13]; 19.2 µM (inactive) in [14]; 30 µM (inactive) in experiment [15]; 17.9 µM (inactive) in [16]; 18.3 µM (inactive) in [17]; 26.8 µM (inactive) in experiment [18]. Further, the GI50 in [19] was > 100 µM (inactive); in [20] it was 19.2 µM (inactive).

For `CSC1=NN(C(C)=O)C(C(OC(C)=O)C(OC(C)=O)C(OC(C)=O)C(COC(C)=O)OC(C)=O)S1` (stereo not given), the GI50 in experiment [1] was > 100 µM (inactive); in experiment [2], 11 µM (inactive); in [3], > 100 µM (inactive); in experiment [4], > 100 µM (inactive); in experiment [5], > 100 µM (inactive); in experiment [6], > 100 µM (inactive). The GI50 in experiment [7], in [8], in experiment [9], in experiment [10], in experiment [11] and in [12] was > 100 µM (inactive) in each case. Besides, the GI50 in [13], in experiment [14], in [15], in experiment [16], in experiment [17] and in experiment [18] was > 100 µM (inactive) throughout. For the same compound, the GI50 in experiment [19] and in experiment [20] was > 100 µM (inactive) each time.

Regarding `O=C(c1c(F)c(F)c(F)c(F)c1F)n1c(O)nc2ccccc21`, the GI50 in experiment [1] was 5.9 µM (inactive); in [2], 12.3 µM (inactive); in experiment [3], 12.8 µM (inactive); in [4], 6.28 µM (inactive); in experiment [5], 5.82 µM (inactive); in experiment [6], 22 µM (inactive). For the same compound, the GI50 is 5.19 µM (inactive) in experiment [7]; 10.1 µM (inactive) in experiment [8]; 8.59 µM (inactive) in experiment [9]; 18.5 µM (inactive) in experiment [10]; 13.2 µM (inactive) in experiment [11]; 17.2 µM (inactive) in experiment [12]. For the same compound, the GI50 in experiment [13] was 7.33 µM (inactive); in experiment [14] it was 13.6 µM (inactive); in [15], 12.2 µM (inactive); in [16] it was 14.8 µM (inactive); in [17], 3.49 µM (inactive); in [18], 10.8 µM (inactive). Also, the GI50 is 15.7 µM (inactive) in [19] and 12.1 µM (inactive) in experiment [20].

As for `CO/C(=N\N=C\c1cccc(C(F)(F)F)c1)c1ccncc1`, the GI50 in experiment [1] is 5.45 µM (inactive); in experiment [2] it was 4.47 µM (inactive); in experiment [3] it was 4.97 µM (inactive); in [4], 4.62 µM (inactive); in experiment [5], 1.8 µM (inactive); in experiment [6], 1.82 µM (inactive). Besides, the GI50 was 17.5 µM (inactive) in experiment [7]; 2.32 µM (inactive) in [8]; 6.64 µM (inactive) in experiment [9]; 7.13 µM (inactive) in experiment [10]; 9.46 µM (inactive) in [11]; 2.93 µM (inactive) in experiment [12]. Further, the GI50 in experiment [13] is 2.13 µM (inactive); in experiment [14] it was 4.67 µM (inactive); in experiment [15], 7.14 µM (inactive); in experiment [16], 4.6 µM (inactive); in experiment [17], 5.52 µM (inactive); in experiment [18] it was 5.77 µM (inactive). For the same compound, the GI50 is 7.85 µM (inactive) in [19] and 4.28 µM (inactive) in [20].

As to `C[C@@H]1C[C@H]2CC[C@H](O2)[C@H](C)C(=O)O[C@@H](C)C[C@@H]2CC[C@@H](O2)[C@@H](C)C(=O)O[C@H](C)C[C@H]2CC[C@H](O2)[C@H](C)C(=O)O[C@@H](C)C[C@@H]2CC[C@@H](O2)[C@@H](C)C(=O)O1`, the GI50 in [1] was 0.211 µM (active); in experiment [2], 0.374 µM (active); in experiment [3], 0.426 µM (active); in experiment [4], 0.237 µM (active); in [5], 0.826 µM (active); in [6] it was 2.17 µM (inactive). Besides, the GI50 is 0.425 µM (active) in [7]; 0.338 µM (active) in experiment [8]; 0.356 µM (active) in [9]; 0.396 µM (active) in experiment [10]; 0.295 µM (active) in [11]; 0.319 µM (active) in experiment [12]. Also, the GI50 in [13] is 0.404 µM (active); in experiment [14], 1.58 µM (inactive); in [15] it was 0.345 µM (active); in experiment [16], 0.199 µM (active); in experiment [17] it was 0.315 µM (active); in [18] it was 0.445 µM (active). Further, the GI50 is 1.43 µM (inactive) in experiment [19] and 0.351 µM (active) in experiment [20].

Regarding `COc1ccc2c(c1)[n+]([O-])c(C#N)c(N1CCN(c3ccc([N+](=O)[O-])cc3)CC1)[n+]2[O-]`, the GI50 in experiment [1] is 1.81 µM (inactive); in [2], < 0.01 µM (active); in [3], 3.63 µM (inactive); in experiment [4], > 22.4 µM (inactive); in experiment [5], 6 µM (inactive); in experiment [6] it was 2.45 µM (inactive). The GI50 was 9.68 µM (inactive) in experiment [7]; 5.13 µM (inactive) in experiment [8]; 6.89 µM (inactive) in experiment [9]; 3.69 µM (inactive) in experiment [10]; 2.09 µM (inactive) in experiment [11]; 4.24 µM (inactive) in [12]. Besides, the GI50 is 7.35 µM (inactive) in experiment [13]; 2.21 µM (inactive) in experiment [14]; 5.31 µM (inactive) in experiment [15]; 2.64 µM (inactive) in [16]; 3.66 µM (inactive) in experiment [17]; 8.63 µM (inactive) in experiment [18]. Further, the results for the GI50 in [19] and in experiment [20] were 8.22 µM (inactive) and 3.76 µM (inactive), respectively.

Turning to `C[C@H](CCc1nc(C#N)c(N)o1)[C@H]1CC[C@H]2[C@@H]3CCC4C[C@@H](O)CC[C@]4(C)[C@H]3C[C@@H](O)[C@]12C` (stereo not given in full), the GI50 is 3.65 µM (inactive) in [1]; 4.53 µM (inactive) in [2]; 14.6 µM (inactive) in experiment [3]; 13.5 µM (inactive) in experiment [4]; 14.4 µM (inactive) in experiment [5]; 8.49 µM (inactive) in [6]. Moreover, the GI50 in experiment [7] was 14.7 µM (inactive); in experiment [8], 15.1 µM (inactive); in [9] it was 9.27 µM (inactive); in [10], 2.65 µM (inactive); in experiment [11], 4.56 µM (inactive); in experiment [12] it was 18.9 µM (inactive). Further, the GI50 was 13.9 µM (inactive) in experiment [13]; 10.2 µM (inactive) in experiment [14]; 17.1 µM (inactive) in experiment [15]; 14.4 µM (inactive) in [16]; 12.7 µM (inactive) in [17]; 10.8 µM (inactive) in experiment [18]. The GI50 in experiment [19] was 14.5 µM (inactive); in experiment [20] it was 12.1 µM (inactive).

For the compound `CCOC(=O)C1CCCCN1CCc1c[nH]c2ccccc12` (stereo not given), the GI50 in experiment [1] is 56.2 µM (inactive); in experiment [2] it was 83.4 µM (inactive); in [3] it was 94.8 µM (inactive); in [4], 50.9 µM (inactive); in experiment [5], > 100 µM (inactive); in [6], 73.1 µM (inactive). The GI50 in experiment [7] is > 100 µM (inactive); in [8], > 100 µM (inactive); in experiment [9] it was 80.9 µM (inactive); in experiment [10], 75 µM (inactive); in experiment [11] it was > 100 µM (inactive); in experiment [12], > 100 µM (inactive). In addition, the GI50 is > 100 µM (inactive) in experiment [13]; > 100 µM (inactive) in [14]; > 100 µM (inactive) in experiment [15]; > 100 µM (inactive) in experiment [16]; 60 µM (inactive) in experiment [17]; > 100 µM (inactive) in experiment [18]. In addition, the GI50 in [19] and in experiment [20] was > 100 µM (inactive) throughout.

Take `CCOC(=O)c1c(N2CCCC2)ncn(Cc2ccccc2)c1=S`: the GI50 in [1] is > 100 µM (inactive); in experiment [2], 55.8 µM (inactive); in [3] it was > 100 µM (inactive); in experiment [4], > 100 µM (inactive); in [5], 30.6 µM (inactive); in [6], > 100 µM (inactive). Moreover, the GI50 in experiment [7], in experiment [8], in experiment [9], in experiment [10], in experiment [11] and in [12] was > 100 µM (inactive) each time. The GI50 in experiment [13], in experiment [14], in experiment [15], in [16], in [17] and in experiment [18] was > 100 µM (inactive) throughout. Further, the GI50 in experiment [19] was > 100 µM (inactive); in experiment [20] it was 63 µM (inactive).
